ChEMBL document CHEMBL1201862, “PubChem BioAssay data set” (2004)
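Where inhibition never reached the appropriate level, the endpoint shown equals the highest concentration tested. Otherwise, values were interpolated linearly from a five-concentration, 48-hour dose response in 96-well plates. GI50: concentration for 50% inhibition of growth.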 Calls of active or inactive are those of the source. Rule as the data show it: active = GI50 up to about 1.1 µM and inactive = higher.

Assays:
Assay in all cases: NCI tumour cell line growth inhibition, 48 h
XF498 = system: XF498
DMS-273 = system: DMS-273
M19-MEL = system: M19-MEL
SNB-78 = system: SNB-78
DLD-1 = system: DLD-1
DMS-114 = system: DMS-114
LXFL 529 = system: LXFL 529
HOP-18 = system: HOP-18
RXF 631 = system: RXF 631

## Nc1nc(N)c2ncn(CCOC(c3ccccc3)P(=O)(O)O)c2n1 (configuration not stated)
XF498
  GI50: > 100 µM (inactive)
DMS-273
  GI50: > 100 µM (inactive)
M19-MEL
  GI50: > 100 µM (inactive)
SNB-78
  GI50: > 100 µM (inactive)
DLD-1
  GI50: > 100 µM (inactive)
DMS-114
  GI50: > 100 µM (inactive)

## Cc1cc(C2CCCCC2)n(O)c(=O)c1 [CICLOPIROX OLAMINE]
XF498
  GI50: 10.7 µM (inactive)
M19-MEL
  GI50: 7.52 µM (inactive)
LXFL 529
  GI50: 4.2 µM (inactive)
HOP-18
  GI50: 39.8 µM (inactive)
DLD-1
  GI50: 5.46 µM (inactive)
RXF 631
  GI50: 5.37 µM (inactive)
DMS-114
  GI50: 4.74 µM (inactive)

## CNS(=O)(=O)NNS(=O)(=O)c1ccc(C)cc1
M19-MEL
  GI50: > 100 µM (inactive)
DLD-1
  GI50: > 100 µM (inactive)
DMS-114
  GI50: > 100 µM (inactive)

## Cc1cc(OCC(O)CO)ccc1-c1ccccc1 (configuration not stated)
XF498
  GI50: 37.1 µM (inactive)
DMS-273
  GI50: > 100 µM (inactive)
M19-MEL
  GI50: > 100 µM (inactive)
SNB-78
  GI50: > 100 µM (inactive)
LXFL 529
  GI50: > 100 µM (inactive)
HOP-18
  GI50: > 100 µM (inactive)
DMS-114
  GI50: > 100 µM (inactive)

## CC(=O)NC(CCCN(Cc1ccccc1)C(=O)N(CCCl)N=O)C(=O)NCc1ccccc1 (configuration not stated)
XF498
  GI50: > 37.8 µM (inactive)
DMS-273
  GI50: 41 µM (inactive)
SNB-78
  GI50: 54.1 µM (inactive)
LXFL 529
  GI50: > 100 µM (inactive)
HOP-18
  GI50: > 100 µM (inactive)
DLD-1
  GI50: 62.7 µM (inactive)
DMS-114
  GI50: > 100 µM (inactive)

## COc1cc(C(=O)CC2(O)C(=O)Nc3c(Cl)cc(Cl)cc32)ccc1O (configuration not stated)
XF498
  GI50: 48.3 µM (inactive)
DMS-273
  GI50: 53 µM (inactive)
SNB-78
  GI50: 87.9 µM (inactive)
LXFL 529
  GI50: 27.9 µM (inactive)
HOP-18
  GI50: 34.4 µM (inactive)
DLD-1
  GI50: 41.9 µM (inactive)
RXF 631
  GI50: > 100 µM (inactive)
DMS-114
  GI50: 37.8 µM (inactive)

## COc1cc(C)c2c(c1C)OC(=O)c1c(C)c(Cl)c(O)c(C=O)c1O2
XF498
  GI50: 12.3 µM (inactive)
DMS-273
  GI50: 14.9 µM (inactive)
SNB-78
  GI50: 13.2 µM (inactive)
LXFL 529
  GI50: 13.9 µM (inactive)
DLD-1
  GI50: 11.6 µM (inactive)
RXF 631
  GI50: 15.5 µM (inactive)

## O=[N+]([O-])c1ccc2nc3ccscc-3c2c1
XF498
  GI50: 17.1 µM (inactive)
DMS-273
  GI50: 12.2 µM (inactive)
M19-MEL
  GI50: 20.1 µM (inactive)
SNB-78
  GI50: 23 µM (inactive)
LXFL 529
  GI50: 13.7 µM (inactive)
HOP-18
  GI50: 14.1 µM (inactive)
DLD-1
  GI50: 9.64 µM (inactive)
RXF 631
  GI50: 14.8 µM (inactive)
DMS-114
  GI50: 16.9 µM (inactive)

## O=C1N2Cc3c4ccc5c3CN3C(=O)N6Cc7c(ccc(c7CN1C6(c1ccccc1)C23c1ccccc1)OCCOCCNCCOCCO4)OCCOCCNCCOCCO5 (configuration not stated)
XF498
  GI50: 60.1 µM (inactive)
DMS-273
  GI50: 41.2 µM (inactive)
M19-MEL
  GI50: 24.9 µM (inactive)
SNB-78
  GI50: > 100 µM (inactive)
LXFL 529
  GI50: 13.7 µM (inactive)
HOP-18
  GI50: 14.4 µM (inactive)
DLD-1
  GI50: > 100 µM (inactive)
RXF 631
  GI50: 31.4 µM (inactive)
DMS-114
  GI50: > 100 µM (inactive)

## N#CN1CCC=C(c2cc3ccccc3[nH]2)C1
DMS-273
  GI50: 428 µM (inactive)
M19-MEL
  GI50: 243 µM (inactive)
LXFL 529
  GI50: 236 µM (inactive)
HOP-18
  GI50: > 448 µM (inactive)
DLD-1
  GI50: 370 µM (inactive)
RXF 631
  GI50: 281 µM (inactive)

## CC(=O)[C@]1(O)Cc2c(O)c3c(c(O)c2[C@@H](OC2CC(N)C(O)C(C)O2)C1)C(=O)c1c(OCc2ccccc2)cccc1C3=O (some centres not stated)
XF498
  GI50: 1.6 µM (inactive)
DMS-273
  GI50: 0.302 µM (active)
SNB-78
  GI50: 4.38 µM (inactive)
LXFL 529
  GI50: 1.14 µM (inactive)
HOP-18
  GI50: 1.71 µM (inactive)
DMS-114
  GI50: 1.36 µM (inactive)

## C=CC1(C)/C(=N\O)C(C)(CC)C(=O)N1O (configuration not stated)
XF498
  GI50: > 100 µM (inactive)
DMS-273
  GI50: > 100 µM (inactive)
M19-MEL
  GI50: > 100 µM (inactive)
SNB-78
  GI50: > 100 µM (inactive)
LXFL 529
  GI50: > 100 µM (inactive)
HOP-18
  GI50: > 100 µM (inactive)
DLD-1
  GI50: > 100 µM (inactive)
RXF 631
  GI50: > 100 µM (inactive)
DMS-114
  GI50: > 100 µM (inactive)

## Cc1cccc(C)c1NC(=O)CCCC(=O)CC(=O)/C=C/c1ccccc1
XF498
  GI50: > 100 µM (inactive)
DMS-273
  GI50: > 100 µM (inactive)
M19-MEL
  GI50: > 100 µM (inactive)
SNB-78
  GI50: > 100 µM (inactive)
LXFL 529
  GI50: > 100 µM (inactive)
HOP-18
  GI50: > 100 µM (inactive)
DLD-1
  GI50: > 100 µM (inactive)
RXF 631
  GI50: > 100 µM (inactive)
DMS-114
  GI50: > 100 µM (inactive)
